Assays:
[1] = method code SF-RC, from DOI: 10.1002/ps.2780190203
[2] = method code SF, from DOI: 10.1016/0006-2952(91)90449-f, PMID: 1930261; details: pH 2.0
[3] = method code SF-AS, from DOI: 10.1002/qua.560100722
[4] = method code SF-GLC, from DOI: 10.1021/je970020p
[5] = method code HPLC, from DOI: 10.1016/j.ejmech.2015.05.022, PMID: 26005028; details: pH 7.1
[6] = method code SF-HPLC, from DOI: 10.1016/j.jchromb.2013.02.012, PMID: 23500352; details: pH 4.4
[7] = not given; remark: listed apart in the source
[8] = not given; remark: listed apart in the source
[9] = method code SF-AS, from PMID: 640322; details: pH 4.0
[10] = not given; remark: listed apart in the source
[11] = method code SF-GLC, from DOI: 10.1016/0043-1354(83)90068-4
[12] = not given; remark: listed apart in the source
[13] = not given; remark: listed apart in the source
[14] = not given; remark: listed apart in the source
[15] = not given; remark: listed apart in the source
[16] = method code SF-HPLC, from DOI: 10.1021/jm00169a024, PMID: 2194033; details: pH 7.4
[17] = method code SF-GLC, from DOI: 10.1021/jm00240a002, PMID: 1151965
[18] = method code SF-AS, from DOI: 10.1016/0045-6535(84)90003-1
[19] = not given; remark: listed apart in the source
[20] = not given; remark: listed apart in the source
[21] = method code SF, from DOI: 10.1093/jnci/60.2.345, PMID: 621753
[22] = method code SF-AS, from DOI: 10.1039/ft9938903773
[23] = method code HPLC, from DOI: 10.1016/j.bmcl.2004.01.062, PMID: 15026043; details: pH 5.5
[24] = method code SF-HPLC, from DOI: 10.1016/j.bmcl.2004.01.062, PMID: 15026043; details: pH 5.5
[25] = not given; remark: listed apart in the source
[26] = not given; remark: listed apart in the source
[27] = method code SF-FL, from DOI: 10.1016/0006-2952(96)00248-1, PMID: 8687500
[28] = method code SF-RC, from DOI: 10.1021/jm901332c, PMID: 19921956; details: pH 7.4
[29] = method code SF-GLC, from Park, Y.; Park, S. (2000). Determination and prediction of octanol/water partition coefficients and air-water partition coefficients for environmental toxic chemicals. 11(7)773-779.
[30] = not given; remark: listed apart in the source
[31] = method code SF, from DOI: 10.1016/0378-5173(85)90077-8

Cc1cc(C(=O)N2Cc3ccc(C(=O)N(CCO)CCO)n3Cc3ccccc32)ccc1-c1ccccc1CCF
logP: 3.14

Cc1cc(OCC(=O)O)ccc1S(C)(=O)=O
logP [1]: 0.54

O=C1NC(=O)C(O)C(=O)N1
logD [2]: -1.85

COc1cccc2c1C(=O)c1c(O)c3c(c(O)c1C2=O)CC(O)(C(C)=O)CC3OC1CC(NC(=O)CN(C)C)C(O)C(C)O1 (centres undefined)
logD ([3]; pH 7.8): 1.26

Clc1cc(Cl)c(Cl)c(Cl)c1Cl
logP [4]: 5.2

CC(=O)OC[C@H]1O[C@@H](OC(C)=O)[C@H](NC(=O)CBr)[C@@H](OC(C)=O)[C@@H]1OC(C)=O
logD [5]: 0.23

Cc1cc(C(=O)N2Cc3ccc(C(=O)N(C)CCF)n3Cc3ccccc32)ccc1-c1ccccc1C(F)(F)F
logP: 5.2

CS(=O)(=O)OC[C@H](O)[C@@H](O)COS(C)(=O)=O
logD [6]: -1.58

Nc1c(Cl)c(Cl)cc(Cl)c1Cl
logP [7]: 4.06

Oc1c(Cl)cccc1Cl
logP [8]: 2.92

NC(=O)N(CCCCCCN(N=O)C(N)=O)N=O
logD [9]: 0.58

O=C1NC(=O)C(=O)C(=O)N1
logD [2]: -1.86

C=CC(=O)OCC(C)(C)C
logP [10]: 2.32

BrC1CCCCC1
logP [11]: 3.2

Oc1cccc(Br)c1Br
logP [12]: 3.37

CC(C)CC(=O)NC(N)=O
logP [13]: 0.45

COc1ccc(CC2C(=O)NC(C)C(=O)N(C)C3Cc4ccc(cc4)Oc4cc(ccc4OC)CC(C(=O)NC(C)C(=O)NC(C)C(=O)N2C)N(C)C3=O)cc1 (centres undefined)
logP [14]: 3.17

OCCBr
logP [15]: 0.29

CCCCN(N=O)C(N)=O
logD [9]: 1.04

C=CC(=O)OC
logP [10]: 0.74

CCN1C[C@H]([C@@H](O)[C@H](CC2CCCCC2)NC(=O)[C@@H](Cc2cnc[nH]2)NC(=O)[C@@H](Cc2ccc(OC)cc2)NC(=O)N(C)CCOCOCCOC)OC1=O
logD [16]: 2.03

CCN1CC(C(O)C(CC2CCCCC2)NC(=O)[C@H](Cc2cnc[nH]2)NC(=O)[C@H](Cc2ccc(OC)cc2)NC(=O)N(C)CC(O)CO)OC1=O (some centres undefined)
logD [16]: 1.42

FC(F)OC(F)(F)C(F)Cl (centres undefined)
logP [17]: 2.1

Oc1c(Cl)ccc(Cl)c1Cl
logP [18]: 3.77

CCCCCC(C)=O
logP [19]: 2.08

COc1ccc(CC2C(=O)NC(C)C(=O)N(C)C3Cc4ccc(cc4)Oc4cc(ccc4OC(C)=O)CC(C(=O)NC(C)C(=O)NC(C)C(=O)N2C)N(C)C3=O)cc1 (centres undefined)
logP [14]: 3.19

CC(C)C(=O)NC(N)=O
logP [13]: 0.04

c1ccc(-c2ccccc2)cc1
logP [20]: 4.05

Clc1cc(Cl)cc(Cl)c1
logP [4]: 4.09

O=NN(CCCl)C(=O)N1CCCC1
logP [21]: 0.9

O=C1C=CC(=O)C=C1
logP [22]: 0.3

CCOCC
logP [17]: 0.89

CN(C)C(=O)Oc1ccc(CC(NC(=O)C2N(S(=O)(=O)c3cnn(C)c3)CSC2(C)C)C(=O)OCOC(=O)C(C)(C)C)cc1 (centres undefined)
logD [23]: 3.14

COc1cccc2c1C(=O)c1c(O)c3c(c(O)c1C2=O)CC(O)(C(C)=O)CC3OC1CC(NC(=O)CN)C(O)C(C)O1 (centres undefined)
logD ([3]; pH 7.8): 0.64

COc1ccc(CC2C(=O)NC(C)C(=O)N(C)C3Cc4ccc(cc4)Oc4cc(ccc4O)CC(C(=O)NC(C)C(=O)NC(C)C(=O)N2C)N(C)C3=O)cc1 (centres undefined)
logP [14]: 2.72

CCCOC(C)=O
logP [19]: 1.11

O=C1C=CC(=O)c2c(O)ccc(O)c21
logP [22]: 1.79

Nc1ccc(F)cc1F
logP [20]: 1.56

O=c1ccc(O)n[nH]1
logP [1]: -0.63

CN(C)C(=O)Oc1ccc(CC(C(=O)OCC(C)(C)C)C(=O)C2N(S(=O)(=O)c3cnn(C)c3)CSC2(C)C)cc1 (centres undefined)
logD [24]: 3.42

O=[N+]([O-])c1ccc(CCBr)cc1
logP [25]: 2.9

Nc1ncnc2nn[nH]c12
logP [26]: -0.96

Oc1c(Cl)c(Cl)cc(Cl)c1Cl
logP [8]: 4.47

COc1cccc2c1C(=O)c1c(O)c3c(c(O)c1C2=O)C[C@@](O)(C(C)=O)C[C@@H]3O[C@H]1C[C@H](NC(=O)CCCNC(=O)[C@@H]2O[C@H](C(=O)O)[C@@H](O)[C@H](O)[C@H]2O)[C@H](O)[C@H](C)O1
logP [27]: -2

O=NN(CCCl)C(=O)NCCO
logP [21]: 0.3

Cn1cnc2c(Cl)ncnc21
logD [28]: 0.38

CC(=O)CC(C)C
logP [29]: 1.4

COc1cccc2c1C(=O)c1c(O)c3c(c(O)c1C2=O)C[C@@](O)(C(C)=O)C[C@@H]3O[C@H]1C[C@H](NC(=O)Cc2ccccc2NC(=O)[C@@H]2O[C@H](C(=O)O)[C@@H](O)[C@H](O)[C@H]2O)[C@H](O)[C@H](C)O1
logP [27]: -1.1

CCOC(=O)C(Cc1ccc(OC(=O)N(C)C)cc1)NC(=O)C1N(S(=O)(=O)c2cnn(C)c2)CSC1(C)C (centres undefined)
logD [23]: 2.14

COc1ccnnc1
logP [30]: 0.24

c1ccnnc1
logP [30]: -0.15

COc1cccc2c1C(=O)c1c(O)c3c(c(O)c1C2=O)C[C@@](O)(C(C)=NNC(=O)c1ccccc1)C[C@@H]3O[C@H]1C[C@H](N)[C@H](O)[C@H](C)O1
logD ([3]; pH 8.8): 0.76

CCCCCCCC(=O)OCC(=O)[C@@]1(O)CC[C@H]2[C@@H]3CCC4=CC(=O)CC[C@]4(C)[C@H]3[C@@H](O)C[C@@]21C
logP [31]: 4.37

CS(=O)(=O)OC[C@H](O)[C@@H]1CO1
logD [6]: -1.18

O=c1[nH]cnc2c1ncn2[C@@H]1O[C@H](CO)[C@@H](O)[C@H]1O
logP [26]: -1.81

COCCOCCOC(=O)C(Cc1ccc(OC(=O)N(C)C)cc1)NC(=O)C1N(S(=O)(=O)c2cnn(C)c2)CSC1(C)C (centres undefined)
logD [24]: 1.41

Oc1ccc(Cl)c(Cl)c1Cl
logP [18]: 3.8

CC(C)(C)CO
logP [15]: 1.29

O=[N+]([O-])c1ccc(Cl)c(Cl)c1Cl
logP [25]: 3.54

CCN1CC(C(O)C(CC2CCCCC2)NC(=O)C(Cc2cnc[nH]2)NC(=O)N(Cc2ccc(OC)cc2)C(=O)N(C)CCOCOC)OC1=O (centres undefined)
logD [16]: 2.3

CCCNC(=O)CBr
logD [5]: 0.91

Oc1c(F)c(F)c(F)c(F)c1F
logP [12]: 2.96

COc1cccc2c1C(=O)c1c(O)c3c(c(O)c1C2=O)C[C@@](O)(C(C)=O)C[C@@H]3O[C@H]1C[C@H](NC(=O)OCc2ccc(NC(=O)[C@@H]3O[C@H](C(=O)O)[C@@H](O)[C@H](O)[C@H]3O)cc2)[C@H](O)[C@H](C)O1
logP [27]: -1.7

Cc1cc(C(=O)N2Cc3ccc(C(=O)N(CCO)CCF)n3Cc3ccccc32)ccc1-c1ccccc1C(F)(F)F
logP: 4.89

C1CCOC1
logP [29]: 0.5

Cn1cnc2c(Br)ncnc21
logD [28]: 0.52

CCCCCC(=O)OCC(=O)[C@@]1(O)CC[C@H]2[C@@H]3CCC4=CC(=O)CC[C@]4(C)[C@H]3[C@@H](O)C[C@@]21C
logP [31]: 3.7

Nc1cc(Cl)c(Cl)cc1Cl
logP [7]: 3.31

BrC=C(Br)Br
logP [11]: 3.2

— the SangsterLogP compilation
